Here are results for 16 substances from patent US8178506B2, “Oligomeric compounds and compositions for use in modulation of small non-coding RNAs” (Regulus Therapeutics Inc., priority 2003, dated 2012).

For data set [1], the system named is BJ, B16-F10, T47D, T47Dp53 and HeLa cells. Briefly: Cell cycle assay (propidium iodide flow cytometry), cell line panel. The class given is cell-based. (In general: A flow cytometer gives signals particle by particle.)
A further data set deals with aP2. Briefly: aP2 mRNA expression in adipocytes (real-time PCR). The class given is cell-based, human. To be noted: for aP2 mRNA: differentiating adipocytes transfected with oligomeric compound, Table 75; for AP2 mRNA: differentiating adipocytes, control = treatment with ISIS 342673.
A further data set deals with adipocytes. Briefly: Triglyceride accumulation assay in adipocytes. The class given is cell-based, human.
A further data set concerns Glut4. Nature of the data set: Glut4 mRNA expression in adipocytes (real-time PCR). The class given is cell-based, human. In general terms: Quantitative PCR measures a nucleic acid by following its amplification.
The test system of a further data set is HSL. Briefly: HSL mRNA expression in adipocytes (real-time PCR). The class given is cell-based, human.
The test system of another data set is PPARγ. Nature of the data set: PPARγ mRNA expression in adipocytes (real-time PCR). The class given is cell-based, human.
Where [2] appears, read: 150 nM oligomeric compound, 4.5 μg/ml LIPOFECTIN, after 72 hours, propidium iodide flow cytometry.
Where [3] appears, read: differentiating adipocytes transfected with oligomeric compound, Table 75.
Setting [4] is: Table 18, differentiating adipocytes, control = treatment with ISIS 342673.
[5] abbreviates: Table 17, differentiating adipocytes, control = treatment with ISIS 342673.

In the oligonucleotide strings, read from the 5' end, every base follows the letter of its sugar. An asterisk marks phosphorothioate; unmarked linkages are phosphodiester. Other units and linkages are bracketed, terminal groups are in braces. A string of capitals states the bases alone. e = 2'-O-(2-methoxyethyl) (MOE); [5mC] = 5-methylcytosine; d = 2'-deoxy (DNA)

With “AGCCTATCCTGGATTACTTGAA (anti-miR; chemistry not fully specified) [ISIS 327907, uniform 2′-MOE PS; targets mir-26a]”, in data set [1] (150 nM, 72 hours (Table 29)), the “percentage of aneuploid cells” value was “higher than average percentages of aneuploid cells” and the “percentage of cells with hypodiploid DNA content (subG1)” value was “increased percentage of cells with hypodiploid DNA content”.
As for “TCATAGCCCTGTACAATGCTGCT (anti-miR; chemistry not fully specified) [ISIS 327906, uniform 2′-MOE PS; targets mir-103-1]”, in data set [1] (150 nM, 72 hours (Table 29)), the “percentage of cells in the G2/M phase” value is “increased percentage of cells in the G2/M phase” and the “percentage of cells with hypodiploid DNA content (subG1)” value is “increased percentage of cells with hypodiploid DNA content”.
Take “328364 (eT*e[5mC]*eT*eT*eA*dA*dG*dT*d[5mC]*dA*d[5mC]*dA*dA*dA*dT*e[5mC]*eA*eG*e[5mC]*eA) [compound 328364]”: in data set [1] (setting [2]), the “G1 (percentage of cells in phase of the cell cycle)” value was 61.5%, the “G2/M (percentage of cells in phase of the cell cycle)” value stood at 14.3%, the “S (percentage of cells in phase of the cell cycle)” value turned out to be 24.2% and the “SubG1 (percentage of cells in phase of the cell cycle)” value was determined as 1.9%. Moreover, the “aneuploid (percentage of cells)” value in data set [1] (setting [2]) is given as 15.1%.
On to “TACTTTATATAGAACACAAG (chemistry not given here) [ISIS 340365, 5-10-5 gapmer PS; targets mir-92-2]”, for which, in data set [1] (150 nM, 72 hours (Table 29)), the “percentage of aneuploid cells” value is “higher than average percentages of aneuploid cells”.
For the substance “CCGAGCTCTCTTATCAACAG (e[5mC]*e[5mC]*eG*eA*eG*d[5mC]*dT*d[5mC]*dT*d[5mC]*dT*dT*dA*dT*d[5mC]*eA*eA*e[5mC]*eA*eG) [ISIS 183891, 5-10-5 gapmer targeting kinesin-like 1 (Eg5), positive control, reference compound]”, the “cell cycle delay or arrest in all cell lines” value in data set [1] (BJ 200 nM, T47D, T47Dp53, HeLa, B16 150 nM, 48 hours) is recorded as “delay or arrest in G2/M phase”.
On to “348116 (UUCGCCCUCUCAACCCAGCUUUU; anti-miR; all 2'-MOE, all phosphorothioate, methylation of C and T or U not given here) [compound 348116]”, for which, in the data set with aP2, the “aP2 mRNA” value is listed as 79 percentage of untreated control (UTC). For the same substance, the “TG (triglyceride accumulation)” value in the data set with adipocytes (setting [3]) is reported as 43 percentage of untreated control (UTC). Also, in the data set with Glut4 (setting [3]), the “GLUT4 mRNA” value is 48 percentage of untreated control (UTC). In the data set with HSL (setting [3]), the “HSL mRNA” value is 58 percentage of untreated control (UTC). For the same substance, the “PPAR gamma mRNA” value in the data set with PPARγ (setting [3]) is recorded as 76 percentage of untreated control (UTC).
In the case of “328091 (antisense eG*e[5mC]*eT*eG*e[5mC]*e[5mC]*eG*eT*eA*eT*eA*eT*eG*eT*eG*eA*eT*eG*eT*e[5mC]*eA) [compound 328091]”, the “aP2 mRNA” value in the data set with aP2 is given as 46 percentage of untreated control (UTC). Besides, the “TG (triglyceride accumulation)” value in the data set with adipocytes (setting [3]) is given as 48 percentage of untreated control (UTC). Moreover, in the data set on Glut4 (setting [3]), the “GLUT4 mRNA” value was 26 percentage of untreated control (UTC). The “HSL mRNA” value with HSL (setting [3]) is listed as 40 percentage of untreated control (UTC). For the same substance, the “PPAR gamma mRNA” value in the data set with PPARγ (setting [3]) is reported as 85 percentage of untreated control (UTC).
Turning to “346914 (AUCUGCACUGUCAGCACUUUA; all 2'-MOE, all phosphorothioate, methylation of C and T or U not given here) [compound 346914]”, in the data set with aP2, the “aP2 mRNA” value was 48 percentage of untreated control (UTC). Further, the “TG (triglyceride accumulation)” value with adipocytes (setting [3]) is given as 41 percentage of untreated control (UTC). Further, the “GLUT4 mRNA” value with Glut4 (setting [3]) is recorded as 16 percentage of untreated control (UTC). In addition, the “HSL mRNA” value in the data set with HSL (setting [3]) was 27 percentage of untreated control (UTC). In addition, in the data set with PPARγ (setting [3]), the “PPAR gamma mRNA” value is 41 percentage of untreated control (UTC).
As for “328113 (antisense e[5mC]*eA*eA*eA*eA*eA*eT*eT*eA*eT*e[5mC]*eA*eG*e[5mC]*e[5mC]*eA*eG*eT*eT*eT*eA) [compound 328113]”, in the data set with aP2 (Table 18), the “AP2 mRNA” value is 84.5 percentage of control. The “aP2 mRNA” value in the data set with aP2 is listed as 87 percentage of untreated control (UTC). Also, the figures for the “TG (triglyceride accumulation)” value with adipocytes (setting [4]) and in the data set with adipocytes (setting [3]) were 80.8 percentage of control and 74 percentage of untreated control (UTC), respectively. The “GLUT4 mRNA” value in the data set on Glut4 (setting [4]) is given as 99.9 percentage of control; in the data set on Glut4 (setting [3]), 78 percentage of untreated control (UTC). Further, the “HSL mRNA” value is 90.6 percentage of control in the data set with HSL (setting [4]) and 83 percentage of untreated control (UTC) in the data set with HSL (setting [3]). Further, the results for the “PPAR gamma mRNA” value with PPARγ (setting [4]) and in the data set on PPARγ (setting [3]) were 93.8 percentage of control and 85 percentage of untreated control (UTC), respectively.
For the substance “346687 (AGCAAGCCCAGACCGCAAAAAG; all 2'-MOE, all phosphorothioate, methylation of C not given here) [compound 346687]”, in the data set with aP2, the “aP2 mRNA” value was 56 percentage of untreated control (UTC). Also, the “TG (triglyceride accumulation)” value in the data set with adipocytes (setting [3]) is recorded as 55 percentage of untreated control (UTC). Also, in the data set on Glut4 (setting [3]), the “GLUT4 mRNA” value is given as 35 percentage of untreated control (UTC). In addition, the “HSL mRNA” value in the data set with HSL (setting [3]) is on record as 53 percentage of untreated control (UTC). Moreover, in the data set with PPARγ (setting [3]), the “PPAR gamma mRNA” value is given as 60 percentage of untreated control (UTC).
Take “328139 (eT*eA*e[5mC]*eT*eT*eT*eT*e[5mC]*eA*eT*eT*e[5mC]*e[5mC]*e[5mC]*e[5mC]*eT*e[5mC]*eA*e[5mC]*e[5mC]*eA; anti-miR) [compound 328139]”: the “AP2 mRNA” value with aP2 (Table 17) is listed as 98.3 percentage of control. In addition, the “aP2 mRNA” value with aP2 was 100 percentage of untreated control (UTC). For the same substance, the “TG (triglyceride accumulation)” value in the data set on adipocytes (setting [5]) was 89.1 percentage of control; in the data set on adipocytes (setting [3]), 90 percentage of untreated control (UTC). Also, the “GLUT4 mRNA” value in the data set on Glut4 (setting [5]) is 106.3 percentage of control; in the data set with Glut4 (setting [3]), 85 percentage of untreated control (UTC). The “HSL mRNA” value is 92.6 percentage of control in the data set with HSL (setting [5]) and 116 percentage of untreated control (UTC) with HSL (setting [3]). For the same substance, the “PPAR gamma mRNA” value is 115.0 percentage of control in the data set on PPARγ (setting [5]) and 91 percentage of untreated control (UTC) in the data set with PPARγ (setting [3]).
As to “328109 (antisense eA*eA*eA*eG*eA*eA*eG*eT*eA*eT*eA*eT*eG*e[5mC]*eA*eT*eA*eG*eG*eA*eA) [compound 328109]”, in the data set on aP2 (Table 18), the “AP2 mRNA” value is 84.9 percentage of control. The “aP2 mRNA” value in the data set with aP2 is reported as 68 percentage of untreated control (UTC). Further, the “TG (triglyceride accumulation)” value in the data set with adipocytes (setting [4]) was 84.9 percentage of control; in the data set on adipocytes (setting [3]) it was 23 percentage of untreated control (UTC). In addition, the “GLUT4 mRNA” value in the data set on Glut4 (setting [4]) was 106.6 percentage of control; in the data set on Glut4 (setting [3]), 55 percentage of untreated control (UTC). Moreover, the entries for the “HSL mRNA” value in the data set with HSL (setting [4]) and in the data set on HSL (setting [3]) were 86.9 percentage of control and 62 percentage of untreated control (UTC), respectively. Moreover, the entries for the “PPAR gamma mRNA” value with PPARγ (setting [4]) and in the data set on PPARγ (setting [3]) were 96.1 percentage of control and 69 percentage of untreated control (UTC), respectively.
On to “327970 (antisense eA*e[5mC]*eA*eA*eA*eG*eT*eT*e[5mC]*eT*eG*eT*eA*eG*eT*eG*e[5mC]*eA*e[5mC]*eT*eG*eA) [compound 327970]”, for which, in the data set with aP2, the “aP2 mRNA” value was 29 percentage of untreated control (UTC). Moreover, the “TG (triglyceride accumulation)” value in the data set on adipocytes (setting [3]) is on record as 48 percentage of untreated control (UTC). Also, in the data set with Glut4 (setting [3]), the “GLUT4 mRNA” value was 27 percentage of untreated control (UTC). Besides, in the data set on HSL (setting [3]), the “HSL mRNA” value is given as 25 percentage of untreated control (UTC). Besides, the “PPAR gamma mRNA” value in the data set with PPARγ (setting [3]) is 46 percentage of untreated control (UTC).
With “346915 (ACAUCGUUACCAGACAGUGUUA; all 2'-MOE, all phosphorothioate, methylation of C and T or U not given here) [compound 346915]”, in the data set with aP2, the “aP2 mRNA” value is 83 percentage of untreated control (UTC). In the data set with adipocytes (setting [3]), the “TG (triglyceride accumulation)” value is reported as 73 percentage of untreated control (UTC). Moreover, in the data set with Glut4 (setting [3]), the “GLUT4 mRNA” value was 75 percentage of untreated control (UTC). For the same substance, the “HSL mRNA” value in the data set with HSL (setting [3]) is given as 67 percentage of untreated control (UTC). Further, the “PPAR gamma mRNA” value in the data set on PPARγ (setting [3]) is on record as 90 percentage of untreated control (UTC).
For the substance “344613 (ACACCAAUGCCCUAGGGGAUGCG; anti-miR; all 2'-MOE, all phosphorothioate, methylation of C and T or U not given here) [compound 344613]”, the “aP2 mRNA” value in the data set with aP2 is 55 percentage of untreated control (UTC). Further, in the data set on adipocytes (setting [3]), the “TG (triglyceride accumulation)” value was 47 percentage of untreated control (UTC). In addition, the “GLUT4 mRNA” value with Glut4 (setting [3]) is recorded as 38 percentage of untreated control (UTC). In the data set on HSL (setting [3]), the “HSL mRNA” value is reported as 46 percentage of untreated control (UTC). For the same substance, in the data set on PPARγ (setting [3]), the “PPAR gamma mRNA” value is reported as 57 percentage of untreated control (UTC).
Regarding “344616 (AGAGGUCGACCGUGUAAUGUGC; anti-miR; all 2'-MOE, all phosphorothioate, methylation of C and T or U not given here) [compound 344616]”, the “aP2 mRNA” value with aP2 is recorded as 26 percentage of untreated control (UTC). For the same substance, the “TG (triglyceride accumulation)” value in the data set on adipocytes (setting [3]) was 32 percentage of untreated control (UTC). Also, the “GLUT4 mRNA” value in the data set on Glut4 (setting [3]) is listed as 2 percentage of untreated control (UTC). Besides, the “HSL mRNA” value with HSL (setting [3]) was 23 percentage of untreated control (UTC). The “PPAR gamma mRNA” value in the data set with PPARγ (setting [3]) is listed as 36 percentage of untreated control (UTC).
